The conditions of data set [1]: cited from earlier work.
Data set [2] is described as follows: Radiochemical purity and stability of 68GaPSMA-R2 by HPLC. The format is physicochemical. The note with it: for stability to the radiolytic degradation / radiochemical purity: up to 4 hours; for stability to the radiolytic degradation: without gentisic acid; for radiochemical purity: without the gentisic acid. How it is done: Radiochemical purity and identification of ^68GaPSMA-R2 by HPLC
Chromatographic conditions
The molecule was labelled with ^68Ga using E&Z generator with an activity in the range of […]. The labelling was performed at 95° C. for 7 minutes with Gallium buffer (pH 3.2-3.8). Experiments were performed by testing different amount of gentisic acid as radiolytic scavenger and peptide amounts (15 μg and 30 μg). In all tests 20 mg of mannitol were added as cake forming.

The subject of the next data set is tumor models. The note with it: current specific activity.

SMILES strings stand for the structures.

Consider `O=C(O)CCC(=O)O` [Succinic acid], for which the “pKa (20° C.)” value in data set [1] is given as 4.22.

Take `O=C([O-])CN1CCN(CC(=O)[O-])CCN(CC(=O)NCCCCCC(=O)N(CCCC[C@H](NC(=O)N[C@@H](CCC(=O)O)C(=O)O)C(=O)O)Cc2ccc(Br)cc2)CCN(CC(=O)[O-])CC1.[68Ga+3]` [68GaPSMA-R2]: in data set [2], the “stability to the radiolytic degradation” value is on record as “good stability to the radiolytic degradation” and the radiochemical purity result was “higher than 92%”. For the same compound, in data set [2] (listed as 68Ga-PSMA-R2), the “stability to the radiolytic degradation” value is “intrinsic stability to the radiolytic degradation” and the radiochemical purity result is “over 92%”. In addition, the 68Ga free result in data set [2] (when gentisic acid is not used in the formulation) was “under 2%”. Further, the biodistribution profile result in the data set with tumor models was “favourable biodistribution profile in tumor models (major uptake in tumor and kidneys, relatively low uptake in other organs)”.

Source of the values: patent US20230330278A1, “METHODS FOR RADIOLABELLING PSMA BINDING LIGANDS AND THEIR KITS” (Novartis AG, priority 2020, published 2023).
